Laboratory results from patent publication EP1289507B1, “USE OF AN ALDOSTERONE ANTAGONIST FOR THE TREATMENT OR PROPHYLAXIS OF ALDOSTERONE-MEDIATED PATHOGENIC EFFECTS” (priority 2000, dated 2001).
Entries after “also recorded” stand apart in the source; their conditions may differ. Where two headings read alike, the source gives them in different places.

Legend:
[1] = system: aldosterone/salt uninephrectomized rats; test: Myocardial injury in aldosterone/salt uninephrectomized rats; format: in vivo, Sprague Dawley rats; settings: eplerenone 100 mg/k/d in chow; aldosterone 0.75ug/hr, 1% NaCl
Description: Sprague Dawley rats (250 g) were uninephrectomized and provided with 1% NaCl-solution as the only source of water. The rats were then implanted with Alzet mini pump that subcutaneously delivered either aldosterone (0.75ug/hr) or vehicle. […] Blood pressure was measured by radio telemetry units implanted in abdominal aorta. Rats were sacrificed for examination of the hearts.

[2] = system: Volume Expanded Hypertensive Rats; settings: averaged for 24 hours after three weeks
[3] = Pharmacokinetics and tolerability in subjects with moderate hepatic impairment vs normal healthy subjects; format: in vivo, human subjects; settings: for AUC(0-t): read-out: AUC (0-lqc), Least Squares Mean; for AUC(0-inf): read-out: AUC (0-∞), Least Squares Mean
[4] = system: aortas of New Zealand white rabbits on normal or 1 % cholesterol chow; test: Endothelial function (isometric tension, superoxide generation) of aortas in diet induced atherosclerosis; format: in vivo; settings: for % NTG (peak relaxation to nitroglycerin) / %Ach (peak relaxation to acetylcholine): eplerenone 50 mg/kg twice daily; for %Ach (peak relaxation to acetylcholine): 6 weeks; for O2 counts: lucigenin chemiluminescence
Description: Methods: New Zealand white rabbits were randomized to four treatment groups. 32 Rabbits were placed on normal (NC) or 1 % cholesterol chow (HC) for a duration of 8 weeks. […] Rabbits were euthanized at the end of 8 weeks and the aortas extracted for isometric tension studies and estimation of superoxide (O2^-) generation in vessel segments by lucigenin chemiluminescence (250 µM). Vessels were preconstricted with phenylephrine (3 x 10^-7) to approximately 50% of peak constriction and dose responses to acetylcholine (Ach) and nitroglycerin (NTG) tested.

[5] = Food effect pharmacokinetic studies, Japan and Ex-Japan; format: in vivo, Japanese (Japan) and European (Ex-Japan) subjects
Description: (§1) The Ex-Japan trials included (i) a single dose tolerability trial, and (ii) a multiple dose tolerability trial, and (iii) a food effect study.
(§2) Both single dose and multiple dose tolerability trials were conducted in Japan utilizing healthy male Japanese subjects. […] Six subjects who received the 100 mg dose also participated in the food effect treatment arm of the single dose tolerability trial.
Table A-11C contains the geometric least squares means for the fed and fasting regimens, the ratios of means and the corresponding 95% confidence intervals (CI) for the ratios of the means for the Japan and Ex-Japan food effect trials.
Each panel consisted of six subjects who were given eplerenone and two subjects who were given placebo.

[6] = system: saline-drinking SHRSP; test: Stroke and cerebrovascular damage in saline-drinking SHRSP; format: in vivo, rats; settings: 100 mg/kg/day
From the text: Fifteen male, 9 weeks of age, saline-drinking SHRSP were included in the experiment.

[7] = Multiple dose tolerability and pharmacokinetic trials, Japan and Ex-Japan; format: in vivo, Japanese (Japan) and European (Ex-Japan) subjects; settings: Japanese male subjects, 400 mg daily for seven days, six subjects
Description: as §1, §2
No formal statistical analyses were performed and the actual derived data is presented for comparison purposes only.
A multiple-dose safety and pharmacokinetic study among Japanese subjects was conducted in Japan. This was a single-blind, randomized, placebo-controlled study. […] Serial blood and urine samples were collected throughout the study for measurement of pharmacokinetic, renal, and hormonal parameters after a single dose on Day 1 and after seven days of dosing.

[8] = human, in vivo, 400 mg, Single Dose, Moderate Impairment
[9] = human, in vivo, 400 mg, Single Dose, Normal

With COC(=O)[C@@H]1CC2=CC(=O)CC[C@]2(C)[C@@]23O[C@@H]2C[C@@]2(C)[C@@H](CC[C@@]24CCC(=O)O4)[C@H]13 [Eplerenone, Pregn-4-ene-7,21-dicarboxylic acid, 9,11-epoxy-17-hydroxy-3-oxo-, γ-lactone, methyl ester, (7α, 11α, 17β)-] the histopathologic myocardial damage [1] was “prevents the histopathologic damage; also recorded: prevents the aldosterone plus high sodium myocardial damage”, the HR ([2]; 100 mg/kg s.c.) was 352 ± 4 beats/min and the SAP ([2]; 100 mg/kg s.c.) was 155 ± 7 mmHg. For the same compound, the HR ([2]; 200 mg/kg s.c.) was 339 ± 4 beats/min, the SAP ([2]; 200 mg/kg s.c.) was 174 ± 5 mmHg and the “AUC greater among subjects with moderate hepatic impairment than matched normal subjects” value ([3]; 400 mg, single dosing, b445 and b448 state it for single and multiple dose) was 41-50%. The “Ratio of Means AUC (0-24)/AUC0-co)” value ([3]; Moderate Hepatic Impairment) was 0.95, the “AUC (0-24), Ratio of Means Moderate/Normal” value ([3]; Multiple Dose) was 1.456 and the “CL/F, Ratio of Means Moderate/Normal” value ([3]; Multiple Dose) was 0.687. For the same compound, the “Cmax, Ratio of Means Moderate/Normal” value ([3]; Multiple Dose) was 1.037, the “XU(0-48), Ratio of Means Moderate/Normal” value ([3]; Multiple Dose) was 2.007 and the “XU(0-48), Least Squares Mean” value ([3]; Multiple Dose, Moderate Impairment) was 14.9 mg. For the same compound, the “XU(0-48), Least Squares Mean” value ([3]; Multiple Dose, Normal) was 7.4 mg, the “Ratio of Means AUC (0-24)/AUC0-co)” value ([3]; Normal) was 1.02 and the “AUC (0-lqc), Ratio of Means Moderate/Normal” value ([3]; Single Dose) was 1.413. For the same compound, the “AUC (0-∞), Ratio of Means Moderate/Normal” value ([3]; Single Dose) was 1.497, the “CL/.F, Ratio of Means Moderate/Normal” value ([3]; Single Dose) was 0.668 and the “Cmax, Ratio of Means Moderate/Normal” value ([3]; Single Dose) was 0.894. The “XU(0-48), Ratio of Means Moderate/Normal” value ([3]; Single Dose) was 1.016, the “XU(0-48), Least Squares Mean” value ([3]; Single Dose, Moderate Impairment) was 7.9 mg and the “XU(0-48), Least Squares Mean” value ([3]; Single Dose, Normal) was 7.8 mg. The “AUC higher in moderate impairment compared to matched normal subjects” value ([3]; following multiple dosing 400 mg QD) was 46%, the AUC tau at 24 h ([3]; human, in vivo, 400 mg, Multiple Dose, Moderate Impairment, read-out: AUC (0-24), Least Squares Mean) was 43800 ng·h/mL and the CL/F ([3]; human, in vivo, 400 mg, Multiple Dose, Moderate Impairment, read-out: CL/F, Least Squares Mean (converted)) was 152 mL/min. It also gave a CL/F ([3]; human, in vivo, 400 mg, Multiple Dose, Moderate, read-out: CL/F, Mean (converted)) of 149 mL/min, an AUC tau at 24 h ([3]; human, in vivo, 400 mg, Multiple Dose, Normal, read-out: AUC (0-24), Least Squares Mean) of 30100 ng·h/mL and a CL/F ([3]; human, in vivo, 400 mg, Multiple Dose, Normal, read-out: CL/F, Least Squares Mean (converted)) of 222 mL/min. For the same compound, the CL/F ([3]; human, in vivo, 400 mg, Multiple Dose, Normal, read-out: CL/F, Mean (converted)) was 230 mL/min, the Tmax ([3]; human, in vivo, 400 mg, Multiple Dose, Normal, read-out: Tmax, Least Squares Mean) was 2.1 h and the AUC(0-t) [3, 8] was 42800 ng·h/mL. For the same compound, the AUC(0-inf) [3, 8] was 43600 ng·h/mL, the CL/F ([3]; human, in vivo, 400 mg, Single Dose, Moderate Impairment, read-out: CL/.F, Least Squares Mean (converted)) was 153 mL/min and the CL/F ([3]; human, in vivo, 400 mg, Single Dose, Moderate, read-out: CL/F, Mean (converted)) was 175 mL/min. For the same compound, the AUC(0-t) [3, 9] was 30300 ng·h/mL, the AUC(0-inf) [3, 9] was 29100 ng·h/mL and the CL/F ([3]; human, in vivo, 400 mg, Single Dose, Normal, read-out: CL/.F, Least Squares Mean (converted)) was 228 mL/min. It also gave a CL/F ([3]; human, in vivo, 400 mg, Single Dose, Normal, read-out: CL/F, Mean (converted)) of 254 mL/min, an AUC tau at 24 h ([3]; human, in vivo, 400 mg, linear kinetics assessment, Moderate Hepatic Impairment, read-out: Multiple Dose AUC (0-24), Least Squares Mean) of 47200 ng·h/mL and an AUC tau at 24 h ([3]; human, in vivo, 400 mg, linear kinetics assessment, Normal, read-out: Multiple Dose AUC (0-24), Least Squares Mean) of 29300 ng·h/mL. The “subjects with adverse events” value ([3]; subjects with moderate hepatic impairment) was 44%, the “subjects with adverse events” value ([3]; subjects with normal hepatic function) was 35% and the “% NTG (peak relaxation to nitroglycerin)” value ([4]; 1 % cholesterol chow (HC)) was 112±4%. For the same compound, the “%Ach (peak relaxation to acetylcholine)” value ([4]; 1 % cholesterol chow (HC)) was 82±6 %, the O2 counts ([4]; 1 % cholesterol chow (HC)) was 1400±504 per mg of dry weight and the “% NTG (peak relaxation to nitroglycerin)” value ([4]; normal chow (NC)) was 107±2%. The “%Ach (peak relaxation to acetylcholine)” value ([4]; normal chow (NC)) was 97±3%, the O2 counts ([4]; normal chow (NC)) was 1110±373 per mg of dry weight and the “AUC (0-lqc), Mean Ratio” value ([5]; Ex-Japan Food Effect Study) was 1.079. The “Cmax, Mean Ratio (fed/fasted)” value ([5]; Ex-Japan Food Effect Study) was 0.814, the “AUC (0-inf), Mean Ratio” value ([5]; Japan Food Effect Study) was 1.218 and the “AUC (0-lqc), Mean Ratio” value ([5]; Japan Food Effect Study) was 1.218. For the same compound, the “Cmax, Mean Ratio (fed/fasted)” value ([5]; Japan Food Effect Study) was 1.157, the “AUC (0-inf), Mean Ratio” value ([5]; human, in vivo) was 1.079 and the proteinuria [6] was 38 ± 18 mg/day. For the same compound, the “severe hypertension (SBP)” value ([6]; Figure A-12) was 237 ± 3 mmHg, the signs of stroke ([6]; n=7) was “no signs of stroke up to 18.5 weeks of age” and the adverse events [7] was “mild fatigue on Day 2”.
